Measured values taken from patent publication US20220363689A1, “INHIBITOR OF BTK AND MUTANTS THEREOF” (Newave Pharmaceutical Inc., priority 2019, published 2022).

Columns and labels:
Assay type in all cases: biochemical
[1] = molecular target: C481S Btk (Homo sapiens, UniProt Q06187, C481S); assay: Caliper-based kinase assay, C481S BTK; conditions: 0.5 nM enzyme, ATP 16 μM, room temperature 3 h; read-out: C481S BTK IC50 (nM) (reversible inhibition)
Protocol: (§1) A Caliper-based kinase assay (Caliper Life Sciences, Hopkinton, Mass.) was used to measure inhibition of WT and […] Btk kinase activity of a compound of the present disclosure. […] The reaction was then terminated with EDTA, final concentration 20 mM and the phosphorylated reaction product was quantified on a Caliper Desktop Profiler (Caliper LabChip 3000).

[2] = molecular target: T1, WT BTK (Homo sapiens, UniProt Q06187); assay: In vitro dialysis assay (irreversibility assay), WT BTK; conditions: reversible or irreversible/covalent inhibition after 24 h dialysis
Protocol: The compound-enzyme complex was dialyzed against the same buffer supplemented with 40 mM ATP for 24 hr. Cumulative dialysis factor>160,000×. After dialysis, the BTK activity was measured in the presence […] and 1 mM substrate peptide and compared to that in non-dialyzed samples. Assay buffer: 100 mM HEPES, pH7.5; […]; 5 mM MgCl2; 1 mM DTT. In this study, Ibrutiib (a FDA approved irreversible BTK inhibitor) was used as a positive control and Saurosporine (a reversible BTK inhibitor) was used as a negative control.

[3] = molecular target: T1, WT BTK; assay: Caliper-based kinase assay, WT BTK; conditions: 0.5 nM enzyme, ATP 16 μM, room temperature 3 h; read-out: WT BTK IC50 (nM) (irreversible inhibition)
Protocol: as §1

T1 sequence (Q06187 whole entry): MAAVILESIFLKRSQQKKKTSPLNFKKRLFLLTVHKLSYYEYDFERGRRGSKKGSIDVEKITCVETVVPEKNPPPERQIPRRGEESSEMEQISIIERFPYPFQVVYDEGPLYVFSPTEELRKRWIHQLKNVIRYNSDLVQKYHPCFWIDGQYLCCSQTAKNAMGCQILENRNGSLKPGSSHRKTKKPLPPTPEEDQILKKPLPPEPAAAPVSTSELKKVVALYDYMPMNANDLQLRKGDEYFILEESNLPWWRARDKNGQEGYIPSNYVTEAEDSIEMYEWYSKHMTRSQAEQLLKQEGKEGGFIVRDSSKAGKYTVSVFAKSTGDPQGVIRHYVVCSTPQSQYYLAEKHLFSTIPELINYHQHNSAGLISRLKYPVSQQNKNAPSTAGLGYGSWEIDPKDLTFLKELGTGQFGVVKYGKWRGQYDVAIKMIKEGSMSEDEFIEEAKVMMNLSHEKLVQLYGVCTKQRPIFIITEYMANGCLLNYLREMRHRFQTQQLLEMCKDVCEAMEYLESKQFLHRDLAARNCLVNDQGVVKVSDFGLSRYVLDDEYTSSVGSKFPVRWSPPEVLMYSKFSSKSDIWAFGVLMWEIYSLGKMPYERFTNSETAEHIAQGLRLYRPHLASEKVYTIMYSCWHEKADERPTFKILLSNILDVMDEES
Chain of C481S Btk (Q06187 whole entry C481S): as the sequence (Q06187 whole entry) above, with C481S counted along it

IC50 [1]	Conclusion (WT BTK) [2]	IC50 [3]	Compound
0.46 nM	Irreversible/covalent inhibition	–	C=CC(=O)Nc1cc(Nc2nc(-c3ccnc(N4CCc5c(sc6c5CC(C)(C)C6)C4=O)c3CO)cn(C)c2=O)ccc1N1CCN(C2COC2)C[C@@H]1C [Example 34, N-(5-[[6-(2-[4,4-dimethyl-9-oxo-7-thia-10-azatricyclo[6.4.0.0^[2,6]]dodeca-1(8),2(6)-dien-10-yl]-3-(hydroxymethyl)pyridin-4-yl)-4-methyl-3-oxopyrazin-2-yl]amino]-2-[(2S)-2-methyl-4-(oxetan-3-yl)piperazin-1-yl]phenyl)prop-2-enamide]
–	Irreversible/covalent inhibition	0.98 nM	C=CC(=O)Nc1cc(Nc2nc(-c3ccnc(N4CCc5c(sc6c5CCCC6)C4=O)c3C)cn(C)c2=O)ccc1N1CCN(C2COC2)C[C@@H]1C [Example 44, (S)—N-(2-(2-methyl-4-(oxetan-3-yl)piperazin-1-yl)-5-((4-methyl-6-(3-methyl-2-(1-oxo-3,4,5,6,7,8-hexahydrobenzo [4, 5]thieno [2,3-c]pyridin-2(1H)-yl)pyridin-4-yl)-3-oxo-3,4-dihydropyrazin-2-yl)amino)phenyl) acrylamide]
–	Irreversible/covalent inhibition	0.36 nM	C=CC(=O)Nc1cc(Nc2nc(-c3ccnc(N4CCn5c(cc6c5CC(C)(C)C6)C4=O)c3C)cn(C)c2=O)ccc1N1CCN(C2COC2)CC1(C)C [Example 45, N-[2-[2,2-dimethyl-4-(oxetan-3-yl)piperazin-1-yl]-5-[[6-(2-[4,4-dimethyl-9-oxo-1,10-diazatricyclo[6.4.0.0^[2,6]]dodeca-2(6),7-dien-10-yl]-3-methylpyridin-4-yl)-4-methyl-3-oxopyrazin-2-yl]amino]phenyl]prop-2-enamide]
–	Irreversible/covalent inhibition	0.12 nM	C=CC(=O)Nc1cc(Nc2nc(-c3ccnc(N4CCn5c(cc6c5CC(C)(C)C6)C4=O)c3CO)cn(C)c2=O)ccc1N1CCN(C2CCOCC2)CC1C (stereo not drawn) [Example 47, N-(5-((6-(2-(7,7-dimethyl-1-oxo-1,3,4,6,7,8-hexahydro-2H-cyclopenta[4,5]pyrrolo[1,2-a]pyrazin-2-yl)-3-(hydroxymethyl)pyridin-4-yl)-4-methyl-3-oxo-3,4-dihydropyrazin-2-yl)amino)-2-(2-methyl-4-(tetrahydro-2H-pyran-4-yl)piperazin-1-yl)phenyl)acrylamide]
–	Irreversible/covalent inhibition	0.065 nM	C=CC(=O)Nc1cc(Nc2nc(-c3ccnc(N4CCn5c(cc6c5CC(C)(C)C6)C4=O)c3CO)cn(C)c2=O)ccc1N1CCN(C2CCOCC2)C[C@@H]1C(F)(F)F [Example 48-R, N-(5-[[6-(2-[4,4-dimethyl-9-oxo-1,10-diazatricyclo[6.4.0.0^[2,6]]dodeca-2(6),7-dien-10-yl]-3-(hydroxymethyl)pyridin-4-yl)-4-methyl-3-oxopyrazin-2-yl]amino]-2-[(2R)-4-(oxan-4-yl)-2-(trifluoromethyl)piperazin-1-yl]phenyl)prop-2-enamide]
–	Irreversible/covalent inhibition	0.4 nM	C=CC(=O)Nc1cc(Nc2nc(-c3ccnc(N4CCn5c(cc6c5CC(C)(C)C6)C4=O)c3C)cn(C)c2=O)ccc1N1CCN(C2CCOCC2)C[C@@H]1C(F)(F)F [Example 53-R, N-(5-[[6-(2-[4,4-dimethyl-9-oxo-1,10-diazatricyclo[6.4.0.0^[2,6]]dodeca-2(6),7-dien-10-yl]-3-methylpyridin-4-yl)-4-methyl-3-oxopyrazin-2-yl]amino]-2-[(2R)-4-(oxan-4-yl)-2-(trifluoromethyl)piperazin-1-yl]phenyl)prop-2-enamide]
–	Irreversible/covalent inhibition	1 nM	C=CC(=O)Nc1cc(Nc2nc(-c3ccnc(N4CCn5c(cc6c5CC(C)(C)C6)C4=O)c3C)cn(C)c2=O)ccc1N1CCN(C2CCOCC2)C[C@H]1C(F)(F)F [Example 53-S, N-(5-[[6-(2-[4,4-dimethyl-9-oxo-1,10-diazatricyclo[6.4.0.0^[2,6]]dodeca-2(6),7-dien-10-yl]-3-methylpyridin-4-yl)-4-methyl-3-oxopyrazin-2-yl]amino]-2-[(2S)-4-(oxan-4-yl)-2-(trifluoromethyl)piperazin-1-yl]phenyl)prop-2-enamide]
–	Irreversible/covalent inhibition	2.9 nM	C=CC(=O)Nc1cc(Nc2nc(-c3ccnc(N4CCc5c(sc6c5CCCC6)C4=O)c3C)cn(C)c2=O)ccc1N1CCN(C2CCOCC2)C[C@@H]1C(F)(F)F [Example 54-R, N-(5-[[4-methyl-6-(3-methyl-2-[6-oxo-8-thia-5-azatricyclo[7.4.0.0^[2,7]]trideca-1(9), 2(7)-dien-5-yl]pyridin-4-yl)-3-oxopyrazin-2-yl]amino]-2-[(2R)-4-(oxan-4-yl)-2-(trifluoromethyl)piperazin-1-yl]phenyl)prop-2-enamide]
–	Irreversible/covalent inhibition	4.4 nM	C=CC(=O)Nc1cc(Nc2nc(-c3ccnc(N4CCc5c(sc6c5CCCC6)C4=O)c3C)cn(C)c2=O)ccc1N1CCN(C2CCOCC2)C[C@H]1C(F)(F)F [Example 54-S, N-(5-[[4-methyl-6-(3-methyl-2-[6-oxo-8-thia-5-azatricyclo[7.4.0.0^[2,7]]trideca-1(9), 2(7)-dien-5-yl]pyridin-4-yl)-3-oxopyrazin-2-yl]amino]-2-[(2S)-4-(oxan-4-yl)-2-(trifluoromethyl)piperazin-1-yl]phenyl)prop-2-enamide]
–	Irreversible/covalent inhibition	0.24 nM	C=CC(=O)Nc1cc(Nc2nc(-c3ccnc(N4CCc5c(sc6c5CCCC6)C4=O)c3CO)cn(C)c2=O)ccc1N1CCN(C2CCOCC2)C[C@@H]1C(F)(F)F [Example 55-R, N-[5-([6-[3-(hydroxymethyl)-2-[6-oxo-8-thia-5-azatricyclo[7.4.0.0^[2,7]]trideca-1(9), 2(7)-dien-5-yl]pyridin-4-yl]-4-methyl-3-oxopyrazin-2-yl]amino)-2-[(2R)-4-(oxan-4-yl)-2-(trifluoromethyl)piperazin-1-yl]phenyl]prop-2-enamide]

Compound	IC50 [1]	Conclusion (WT BTK) [2]	IC50 [3]
C=CC(=O)Nc1cc(Nc2nc(-c3ccnc(N4CCn5c(cc6c5CC(C)(C)C6)C4=O)c3C)cn(C)c2=O)ccc1N1CCN(C2CCOCC2)C[C@@H]1C [Example 40, N-(5-[[6-(2-[4,4-dimethyl-9-oxo-1,10-diazatricyclo[6.4.0.0^[2,6]]dodeca-2(6),7-dien-10-yl]-3-methylpyridin-4-yl)-4-methyl-3-oxopyrazin-2-yl]amino]-2-[(2S)-2-methyl-4-(oxan-4-yl)piperazin-1-yl]phenyl)prop-2-enamide]	–	Irreversible/covalent inhibition	0.083 nM
C=CC(=O)Nc1cc(Nc2nc(-c3ccnc(N4CCn5c(cc6c5CC(C)(C)C6)C4=O)c3C)cn(C)c2=O)cnc1N1CCN(C2COC2)C[C@@H]1C [Example 46, N-(5-[[6-(2-[4,4-dimethyl-9-oxo-1,10-diazatricyclo[6.4.0.0^[2,6]]dodeca-2(6),7-dien-10-yl]-3-methylpyridin-4-yl)-4-methyl-3-oxopyrazin-2-yl]amino]-2-[(2S)-2-methyl-4-(oxetan-3-yl)piperazin-1-yl]pyridin-3-yl)prop-2-enamide]	–	Irreversible/covalent inhibition	0.16 nM
